Molecular target: T1, endothelial lipase (EL) (Homo sapiens, UniProt Q9Y5X9)
T1 construct: made in house; host or cells: recombinant cell lines (CHO, HEK293); concentrated conditioned medium
T1 sequence (Q9Y5X9 21-500): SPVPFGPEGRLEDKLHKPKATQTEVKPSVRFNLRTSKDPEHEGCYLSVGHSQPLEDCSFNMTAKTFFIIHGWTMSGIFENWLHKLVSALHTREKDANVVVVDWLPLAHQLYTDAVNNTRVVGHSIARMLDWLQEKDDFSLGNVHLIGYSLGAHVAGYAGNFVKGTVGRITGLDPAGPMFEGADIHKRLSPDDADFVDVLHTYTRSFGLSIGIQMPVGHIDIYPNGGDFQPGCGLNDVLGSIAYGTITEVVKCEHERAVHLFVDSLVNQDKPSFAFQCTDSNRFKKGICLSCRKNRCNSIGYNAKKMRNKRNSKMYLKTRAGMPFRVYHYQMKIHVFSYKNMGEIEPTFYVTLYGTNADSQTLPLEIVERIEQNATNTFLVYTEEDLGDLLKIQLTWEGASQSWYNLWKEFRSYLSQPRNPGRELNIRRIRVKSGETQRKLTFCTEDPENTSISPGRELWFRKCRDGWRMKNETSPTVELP
Assay: Further EL inhibition assay
Type: biochemical
Conditions: phospholipase substrate (Bodipy-labelled phosphocholine), 37° C., 90 minutes, EL from conditioned medium of recombinant cell lines (CHO, HEK293)
Source text: EL is released as secretory protein in high concentration into cell culture medium (conditioned medium) by recombinant cell lines (CHO, HEK293). This is employed as enzyme solution after concentration.
The enzymatic activity is reduced as a function of the inhibitor concentration used, and the inhibitor concentration at which a half-maximum enzymatic activity is observed is called IC50.
The phospholipase-specific substrate 1,2-bis(4,4-difluoro-5,7-dimethyl-4-bora-3a,4a-diaza-s-indacene-3-undecanoyl)-sn-glycero-3-phosphocholine, (manufacturer Molecular Probes) is used to characterize the enzymatic activity of endothelial lipase and the effect of inhibitors. Hydrolysis of the A1 ester linkage of this phospholipid by the enzyme liberates the fluorescent dye Bodipy which can be detected after separation by thin-layer chromatography on an HPTLC plate (silica gel 60, Merck) or directly in the reaction vessel by measuring the fluorescence.
The substrate solution is prepared by dissolving 100 μg of 1,2-bis(4,4-difluoro-5,7-dimethyl-4-bora-3a,4a-diaza-s-indacene-3-undecanoyl)-sn-glycero-3-phosphocholine (manufacturer Molecular Probes) in 100 μl of DMSO and taking up in 2.4 mg of tripalmitin (Sigma) in 393 μl of chloroform which comprises 20 mg/ml DOP-choline (1,2-dioleoyl-sn-glycero-3-phosphocholine). 39.3 μl of this lipid mixture are transferred into a fresh reaction vessel, and the solvent is evaporated off. The lipid mixture is dissolved in 4 ml of 200 mM TRIS-HCl, 150 mM sodium chloride, pH=7.4, by sonication twice. The subsequent enzymic reaction takes place at 37° C. for 90 minutes. For this purpose, 20 μl of the substrate solution are incubated with 2 μl of inhibitor of appropriate concentration (dissolved in 10% DMSO, using 10% strength DMSO solution for control) and 2 μl of enzyme solution (conditioned medium). The 4 μl of the assay mixture are loaded onto an HPTLC plate (silica gel 60, Merck), and the liberated fluorescent dye is separated for detection with an eluent (diethyl ether:petroleum benzine:acetic acid [78:22:1]). After evaporation of the eluent, the plate is read in a fluorescence scanner. An increased liberation of the fluorescent dye in the uninhibited reaction is to be observed as a measure of the enzymic activity.

SMILES	IC50
CCCCCCNC(=O)n1c(=O)sc2ccccc21 [Example 1, 2-Oxobenzothiazole-3-hexylcarboxamide]	0.16 µM
CCCCCCCNC(=O)n1c(=O)sc2ccccc21 [Example 2, 2-Oxobenzothiazole-3-heptylcarboxamide]	0.051 µM
CCCCCCCNC(=O)n1c(=O)sc2ccc(Cl)cc21 [Example 6, 5-Chloro-2-oxobenzothiazole-3-heptylcarboxamide]	0.014 µM

The remaining lines, values ahead:

IC50	SMILES
0.052 µM	Cc1ccccc1CNC(=O)n1c(=O)sc2ccccc21 [Example 3, 2-Oxobenzothiazole-3-(2-methylbenzyl)carboxamide]
0.215 µM	Cc1cccc(CNC(=O)n2c(=O)sc3ccccc32)c1 [Example 4, 2-Oxobenzothiazole-3-(3-methylbenzyl)carboxamide]
0.435 µM	CCCCCCNC(=O)n1c(=O)sc2cc(Br)ccc21 [Example 5, 6-Bromo-2-oxobenzothiazole-3-hexylcarboxamide]
0.12 µM	CCCCCCNC(=O)n1c(=O)sc2ccc(C(F)(F)F)cc21 [Example 7, 2-Oxo-5-trifluoromethylbenzothiazole-3-hexylcarboxamide]

— patent US8008331B2, “Benzothiazol-2-one derivatives as lipase and phospholipase inhibitors” (Sanofi-Aventis, priority 2005, dated 2011)
